Laboratory results as given in patent publication US20240300910A1, “NITROTHIAZOLE DERIVATIVE AND APPLICATION THEREOF” (CHENGDU BIOBEL BIOTECHNOLOGY CO., LTD., priority 2021, published 2024).
Converted amounts (≈) assume the structure as drawn. Like-named read-outs stand apart in the source and are kept apart here.

How the values were obtained:
[1] = test system: Clostridium difficile ATCC BBA1870; assay: In vitro MIC, agar dilution, Clostridium difficile ATCC BBA1870; assay type: cell-based; conditions: Clostridioides difficile, ATCCBBA1870, 48 h, read-out: MIC values, Clostridium difficile ATCC BBA1870
[2] = test system: Clostridium difficile ATCC 700057; assay: In vitro MIC, agar dilution, Clostridium difficile ATCC 700057; assay type: cell-based; conditions: Clostridioides difficile, read-out: MIC values, Clostridium difficile ATCC 700057
[3] = test system: Clostridium difficile ATCC 630; assay: In vitro MIC, agar dilution, Clostridium difficile ATCC 630; assay type: cell-based; conditions: Clostridioides difficile, read-out: MIC values, Clostridium difficile ATCC 630
ATCC BAA-835 = assay: Selectivity on intestinal probiotics, MIC, agar dilution; assay type: cell-based; conditions: read-out: MIC value, ATCC BAA-835
Method: (§1) ATCC19435, Lactobacillus rhamnosus ATCC7469, Lactobacillus bulgaricus ATCC11842, and the test was performed using Brucella agar medium. The strains frozen at −80° C. were seeded in solid agar medium. The medium was placed in a 37° C. incubator and anaerobically cultivated for 24-48 h. […] For compound I-3 of the present invention, a high concentration (100× test concentration) of working solution was prepared and used on the same day, and 100% DMSO was used as the solvent. As for the preparation of each agar plate for each diluted concentration, 20 μl of high concentration working solution was mixed with 2 ml of melted Brucella agar with supplements (45-55° C.), and then added to a 6-well plate for solidification. 1% DMSO was used as growth control. On the day of the experiment, an appropriate amount of single bacterial colony was selected and suspended in physiological saline. A turbidity meter was used to adjust the turbidity of the bacterial solution to OD600=0.2, and thus the density was about 1×10^8 CFU/ml. 2 μl of such bacterial solution was directly seeded on a solid dilution agar plate of each compound. […] Then, all of the test plates were subjected to anaerobic cultivation at 35±2° C. for 48 h.

[4] = test system: Bifidobacterium bifidum CGMCC NO.1.5091; assay: as above; assay type: cell-based; conditions: read-out: MIC value, Bifidobacterium bifidum CGMCC NO.1.5091
Method: as §1

[5] = test system: Enterococcus faecalis ATCC19433; assay: as above; assay type: cell-based; conditions: read-out: MIC value, Enterococcus faecalis ATCC19433
Method: as §1

[6] = test system: Lactobacillus acidophilus ATCC4356; assay: as above; assay type: cell-based; conditions: read-out: MIC value, Lactobacillus acidophilus ATCC4356
Method: as §1

[7] = test system: Lactobacillus bulgaricus ATCC11842; assay: as above; assay type: cell-based; conditions: read-out: MIC value, Lactobacillus bulgaricus ATCC11842
Method: as §1

[8] = test system: Lactobacillus rhamnosus ATCC7469; assay: as above; assay type: cell-based; conditions: Lacticaseibacillus rhamnosus, read-out: MIC value, Lactobacillus rhamnosus ATCC7469
Method: as §1

[9] = test system: Lactococcus lactis subsp. ATCC19435; assay: as above; assay type: cell-based; conditions: read-out: MIC value, Lactococcus lactis subsp. ATCC19435
Method: as §1

[10] = test system: Clostridium difficile spores (ATCC 630 strain); assay: Treatment of Clostridium difficile infection in golden hamsters; assay type: in vivo; conditions: golden hamsters challenged with C. difficile spores; for survival / mortality after drug withdrawal, observed until the 45th day: twice a day for 20 days (I-3 100 mg/kg, vancomycin 10 mg/kg, fidaxomicin 10 mg/kg, nitazoxanide 100 mg/kg); for time after drug withdrawal at which deaths occurred / began: drugs removed from the 21st day
Method: 60 of 5-week-old male golden hamsters, weighing 70-90 g, were purchased from Beijing Vital River Laboratory Animal Technology Co., Ltd. After one week of adaptive feeding, golden hamsters were randomly divided into six groups. The model group and four test groups were orally administrated 10 mg/kg clindamycin, while the blank group was given the same volume of normal saline, and this day was recorded as day −1. On day 0, the model group and the test groups were challenged with Clostridium difficile spores (ATCC 630 strain), and each hamster received 5E4 spores. The blank group was not treated. Starting from the first day, four test groups were administered 100 mg/kg of compound I-3 according to the present invention, 10 mg/kg of vancomycin, 10 mg/kg of fidaxomicin, and 100 mg/kg of nitazoxanide twice a day, respectively; the blank group and the model group were given equal amounts of normal saline for a total of 20 days. During this period, the changes in weight, the diarrhea, and the mortality of animals were observed. Starting from the 21st day, the drugs were removed, but the observation was continued until the 45th day.

[11] = ATCC700057, Brucella agar with supplements, anaerobic cultivation 48 h
[12] = ATCC630, Brucella agar with supplements, anaerobic cultivation 48 h
[13] = probiotic strain, Brucella agar, anaerobic cultivation 48 h
[14] = CGMCC1, probiotic strain, Brucella agar, anaerobic cultivation 48 h
[15] = ATCC19433, probiotic strain, Brucella agar, anaerobic cultivation 48 h
[16] = ATCC4356, probiotic strain, Brucella agar, anaerobic cultivation 48 h
[17] = ATCC11842, probiotic strain, Brucella agar, anaerobic cultivation 48 h
[18] = ATCC7469, probiotic strain, Brucella agar, anaerobic cultivation 48 h
[19] = ATCC19435, probiotic strain, Brucella agar, anaerobic cultivation 48 h

Compound	MIC [1]	MIC [2, 11]	MIC [3, 12]	MIC (ATCC BAA-835; [13])	MIC [4, 14]	MIC [5, 15]	MIC [6, 16]	MIC [7, 17]	MIC [8, 18]	MIC [9, 19]	survival / mortality after drug withdrawal, observed until the 45th day [10]	other results
CC(=O)Oc1ccccc1C(=O)Nc1ncc([N+](=O)[O-])s1 [nitazoxanide, Nitazoxanide]	0.5 µg/mL (≈ 1.63 µM)	0.125 µg/mL (≈ 0.407 µM)	0.125 µg/mL (≈ 0.407 µM)	1 µg/mL (≈ 3.25 µM)	32 µg/mL (≈ 104 µM)	64 µg/mL (≈ 208 µM)	64 µg/mL (≈ 208 µM)	64 µg/mL (≈ 208 µM)	256 µg/mL (≈ 833 µM)	8 µg/mL (≈ 26 µM)	four hamsters in the nitroxide group survived	–
CCCC(=O)Oc1ccccc1C(=O)Nc1ncc([N+](=O)[O-])s1 [Compound I-1]	0.25 µg/mL (≈ 0.746 µM)	0.25 µg/mL (≈ 0.746 µM)	0.0625 µg/mL (≈ 0.186 µM)	–	–	–	–	–	–	–	–	–
CCCCCCCCCCCCCC(=O)Oc1ccccc1C(=O)Nc1ncc([N+](=O)[O-])s1 [Compound I-4]	0.25 µg/mL (≈ 0.526 µM)	0.125 µg/mL (≈ 0.263 µM)	0.0625 µg/mL (≈ 0.131 µM)	–	–	–	–	–	–	–	–	–
CN[C@H](CC(C)C)C(=O)N[C@H]1C(=O)N[C@@H](CC(N)=O)C(=O)N[C@H]2C(=O)N[C@H]3C(=O)N[C@H](C(=O)N[C@H](C(=O)O)c4cc(O)cc(O)c4-c4cc3ccc4O)[C@H](O)c3ccc(c(Cl)c3)Oc3cc2cc(c3O[C@@H]2O[C@H](CO)[C@@H](O)[C@H](O)[C@H]2O[C@H]2C[C@](C)(N)[C@H](O)[C@H](C)O2)Oc2ccc(cc2Cl)[C@H]1O [vancomycin]	1 µg/mL (≈ 0.69 µM)	–	–	–	–	–	–	–	–	–	all hamsters in the vancomycin group died	MIC ([2]; ATCC700057, 48 h): 1 µg/mL (≈ 0.69 µM); MIC ([3]; ATCC630, 48 h): 2 µg/mL (≈ 1.38 µM); MIC (ATCC BAA-835; 48 h): 8 µg/mL (≈ 5.52 µM); MIC ([4]; CGMCC1, 48 h): 4 µg/mL (≈ 2.76 µM); MIC ([5]; ATCC19433, 48 h): 4 µg/mL (≈ 2.76 µM); MIC ([6]; ATCC4356, 48 h): 4 µg/mL (≈ 2.76 µM); MIC ([7]; ATCC11842, 48 h): > 256 µg/mL; MIC ([8]; ATCC7469, 48 h): 256 µg/mL (≈ 177 µM); MIC ([9]; ATCC19435, 48 h): 4 µg/mL (≈ 2.76 µM)
CCc1c(Cl)c(O)c(Cl)c(O)c1C(=O)O[C@H]1[C@H](O)[C@H](OC)[C@H](OC/C2=C\C=C\C[C@H](O)/C(C)=C/[C@H](CC)[C@@H](O[C@@H]3OC(C)(C)[C@@H](OC(=O)C(C)C)[C@H](O)[C@@H]3O)/C(C)=C/C(C)=C/C[C@@H]([C@@H](C)O)OC2=O)O[C@@H]1C [fidaxomicin]	–	–	–	1 µg/mL (≈ 0.945 µM)	4 µg/mL (≈ 3.78 µM)	1 µg/mL (≈ 0.945 µM)	128 µg/mL (≈ 121 µM)	128 µg/mL (≈ 121 µM)	16 µg/mL (≈ 15.1 µM)	64 µg/mL (≈ 60.5 µM)	all of them died	time after drug withdrawal at which deaths occurred / began [10]: 15 days
CCCCCCCCCCCC(=O)Oc1ccccc1C(=O)Nc1ncc([N+](=O)[O-])s1 [Compound I-3]	0.125 µg/mL (≈ 0.279 µM)	0.0625 µg/mL (≈ 0.14 µM)	0.0625 µg/mL (≈ 0.14 µM)	128 µg/mL (≈ 286 µM)	128 µg/mL (≈ 286 µM)	256 µg/mL (≈ 572 µM)	> 256 µg/mL	> 256 µg/mL	> 256 µg/mL	256 µg/mL (≈ 572 µM)	only one animal died	time after drug withdrawal at which deaths occurred / began [10]: 7 days
CCCCCCCC(=O)Oc1ccccc1C(=O)Nc1ncc([N+](=O)[O-])s1 [Compound I-2]	0.25 µg/mL (≈ 0.639 µM)	0.25 µg/mL (≈ 0.639 µM)	0.0625 µg/mL (≈ 0.16 µM)	–	–	–	–	–	–	–	–	–
